Target: xanthine oxidase (Homo sapiens, UniProt P47989)
Assay: Xanthine oxidase inhibitory activity measured by HPLC (xanthine content)
Type: biochemical
Conditions: Flazin samples 0.625-20.0 mg/ml; xanthine 50 μg/ml, xanthine oxidase 0.1 U, 30° C., 30 min; FIG. 1
Method: Xanthine oxidase inhibitory activity was measured as follows. Firstly, concentrations (0.625, 1.25, 2.5, 5.0, 10.0 and 20.0 mg/ml) of Flazin samples were prepared. Then, xanthine oxidase inhibitory activity was measured by HPLC by the following procedure. In a reaction tube, 880 μl of xanthine (50 μg/ml in 100 mM PBS) and 40 μl of 50 mM PBS or 40 μl of the Flazin samples were premixed, and 80 μl […] of xanthine oxidase (0.1 U) was added to initiate the reaction. The reaction was incubated at 30° C. for 30 min., after which an equal volume of absolute ethanol was added to terminate the reaction. The terminated reaction was filtered through a 0.22 μm membrane filter and the content of xanthine in the reactions was analyzed by HPLC. Xanthine oxidase inhibitory activity of the samples was calculated as follows: […]

Chain of xanthine oxidase (P47989 whole entry, species assumed): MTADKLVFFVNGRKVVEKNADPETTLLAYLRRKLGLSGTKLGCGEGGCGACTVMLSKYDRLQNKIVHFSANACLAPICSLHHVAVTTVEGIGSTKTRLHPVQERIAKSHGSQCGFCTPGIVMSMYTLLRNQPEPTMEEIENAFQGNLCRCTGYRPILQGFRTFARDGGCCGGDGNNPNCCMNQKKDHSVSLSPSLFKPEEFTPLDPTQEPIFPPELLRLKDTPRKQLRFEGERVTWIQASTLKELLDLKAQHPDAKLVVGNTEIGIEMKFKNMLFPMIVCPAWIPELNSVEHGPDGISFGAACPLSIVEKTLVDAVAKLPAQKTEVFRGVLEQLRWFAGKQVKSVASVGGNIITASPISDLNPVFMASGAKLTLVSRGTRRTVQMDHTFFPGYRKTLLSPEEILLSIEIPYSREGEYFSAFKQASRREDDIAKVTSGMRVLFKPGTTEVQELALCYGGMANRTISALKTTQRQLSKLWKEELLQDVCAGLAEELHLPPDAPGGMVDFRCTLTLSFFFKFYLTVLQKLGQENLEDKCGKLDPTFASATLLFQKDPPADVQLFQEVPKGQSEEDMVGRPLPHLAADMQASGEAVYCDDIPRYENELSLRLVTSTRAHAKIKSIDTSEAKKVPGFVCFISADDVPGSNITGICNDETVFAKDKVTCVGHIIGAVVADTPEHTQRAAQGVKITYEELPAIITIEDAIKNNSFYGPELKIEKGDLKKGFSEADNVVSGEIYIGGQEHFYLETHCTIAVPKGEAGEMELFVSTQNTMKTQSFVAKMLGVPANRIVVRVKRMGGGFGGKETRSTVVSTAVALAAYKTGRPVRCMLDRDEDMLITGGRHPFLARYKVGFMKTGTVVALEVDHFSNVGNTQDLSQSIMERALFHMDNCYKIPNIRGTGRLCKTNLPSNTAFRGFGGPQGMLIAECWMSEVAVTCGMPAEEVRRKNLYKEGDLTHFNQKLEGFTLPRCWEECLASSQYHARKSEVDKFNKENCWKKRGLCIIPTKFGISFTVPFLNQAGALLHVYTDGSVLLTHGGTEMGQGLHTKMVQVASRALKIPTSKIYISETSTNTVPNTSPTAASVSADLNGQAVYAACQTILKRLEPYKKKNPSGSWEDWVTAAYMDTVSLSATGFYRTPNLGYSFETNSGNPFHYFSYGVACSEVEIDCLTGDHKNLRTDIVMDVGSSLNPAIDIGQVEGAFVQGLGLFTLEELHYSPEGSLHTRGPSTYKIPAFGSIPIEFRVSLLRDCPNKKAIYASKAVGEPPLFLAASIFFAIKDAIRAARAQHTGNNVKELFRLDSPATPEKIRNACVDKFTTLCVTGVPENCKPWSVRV

SMILES: O=C(O)c1cc2c([nH]c3ccccc32)c(-c2ccc(CO)o2)n1 [Flazin, 1-[5-(hydroxymethyl)furan-2-yl]-9H-pyrido[3,4-b]indole-3-carboxylic acid]
- IC50: ~32.1 mM

Reference: patent US20170165239A1, “USE OF BETA-CARBOLINE ALKALOID IN INHIBITING XANTHINE OXIDASE ACTIVITY” (Food Industry Research And Development Institute, priority 2015, published 2017)
